In patent US10450335B2, “Antiviral oxime phosphoramide compounds” (Merck Sharp & Dohme Corp., priority 2015, dated 2019):
Read-outs that look alike come from different tables or passages of the source.

Experiments:
[1] = Prodrug stability assay in bio-relevant media (FaSSIF with Pancreatin, GI tract stability); type: in vitro ADME; conditions: HPLC peak area of prodrug at 5 h / 0 h, 0.5 mg/mL Pancreatin in FaSSIF, 37° C.
Description: Prodrug Stability Assay in Bio-Relevant Media
The following assay was employed to evaluate the stability of the prodrugs in simulated gastrointestinal tract conditions. Preparation of fasted state simulated intestinal fluid (FaSSIF) using Phares SIF Powder was carried out according to protocols from Phare Drug Delivery AG (Baselland, Switzerland). For sample preparation, 10 μL stock solutions (10 mM) of prodrug substance in DMSO was added to 990 μL of 0.5 mg/mL Pancreatin solution (Fisher CAS#8049-47-6) in FaSSIF. Two samples were prepared for each compound. If the sample was a clear solution, it was directly analyzed by HPLC. If the sample was not clear, the sample was […] at 37° C. and observed 5 h later. If the sample was clear, HPLC analysis was directly performed. If the sample was still not clear, the sample was diluted with 100% ACN and assayed by HPLC. All the samples were vortexed for 3 min and observed before injection. For the diluted samples, the area is multiplied by a dilution factor when the data is analyzed. The analysis was carried out with an Agilent 1100 series HPLC with autosampler. The column was a Poroshell 120 EC-C18, 4.6×50 mm, […]. The flow rate was 1.8 mL/min, and the injection volume was 5 or 10 μL. UV detection was in the range 210-400 nm. The mobile phase consisted of solvent A (water plus 10 mM tetrabutylammonium bromide) and solvent B (acetonitrile) with a gradient of: 90% solvent A at 0 min, changing to 95% solvent B over 6 min, maintaining for 1.5 min, then reverting to 90% solvent A over 1.6 min. The HPLC peak area of the prodrug at 5 h was divided by the HPLC peak area of the prodrug at 0 h, to generate the % claimed parent ratio, which is summarized in Table 2 for gastrointestinal (GI) Tract stability.

[2] = tested on: HIV-1 (H9/IIIB strain); assay: Viking assay: antiviral potency in a multiple round HIV-1 infection assay in MT4-GFP cells; type: cell-based; conditions: Human immunodeficiency virus 1, IIIB, MT4-GFP cells infected with HIV-1 H9/IIIB, inhibition of reproductive ratio R0
Description: Assessing Antiviral Potency in a Multiple Round HIV-1 Infection Assay (Viking Assay)
The antiviral activity of the tenofovir prodrugs of the Examples herein was assessed in an assay that measures the rate of replication of HIV in cell culture, termed the Viking assay (VIral KINetics in Green cells) and performed as follows. HIV-1 replication was monitored using MT4-gag-GFP clone D3 (hereafter designated MT4-GFP), which are MT-4 cells modified to harbor a GFP reporter gene, the expression of which is dependent on the HIV-1 expressed proteins tat and rev. Productive infection of an MT4-GFP cell with HIV-1 results in GFP expression approximately 24 h post-infection. MT4-GFP cells were maintained at 37° C./5% CO2/90% relative humidity in RPMI 1640 supplemented with 10% fetal bovine serum, 100 U/ml penicillin/streptomycin, and 400 μg/ml G418 to maintain the reporter gene. For infections, MT4-GFP cells were placed in the same medium lacking G418 and infected overnight with HIV-1 (H9/IIIB strain) virus at an approximate multiplicity of infection of 0.01 in the same incubation conditions. Cells were then washed and re-suspended in either RPMI 1640 supplemented with 10% or 50% normal human serum (NHS) at 1.6×10^5 cells/mL (10% NHS or 50% NHS, respectively). Compound plates were prepared by dispensing compounds dissolved in DMSO into wells of 384 well poly-D-lysine-coated plates (0.2 μl/well) using an ECHO acoustic dispenser. Each compound was tested in a 10-point serial 3-fold dilution (typical final concentrations: 8.4 μM-0.42 nM). Controls included no inhibitor (DMSO only) and a combination of three antiviral agents (efavirenz, indinavir, an in-house integrase strand transfer inhibitor at final concentrations of 4 μM each). Cells were added (50 μL/well) to compound plates and the infected cells were maintained at 37° C./5% CO2/90% relative humidity.
Infected cells were quantified at two time points, ˜48 h and ˜72 h post-infection, by counting the number of green cells in each well using an Acumen eX3 scanner. The increase in the number of green cells over ˜24 h period gives the reproductive ratio, R0, which is typically 5-15 and has been shown experimentally to be in logarithmic phase (data not shown). Inhibition of R0 is calculated for each well, and IC50s determined by non-linear 4-parameter curve fitting.

[3] = 10% normal human serum, read-out: Viking, IC50 (10% NHS)
[4] = 50% normal human serum, read-out: Viking, IC50 (50% NHS)

Compound	GI Tract stability [1] [%]	IC50 [2, 3] [nM]	IC50 [2, 4] [nM]
CC(C)CC(CC(C)C)=NOP(=O)(CO[C@H](C)Cn1cnc2c(N)ncnc21)NC(C)(C)C(=O)OC(C)C (single isomer, unassigned) [Example 28]	93.1	0.7	3.8
CC(C)OC(=O)[C@H](C)NP(=O)(CO[C@H](C)Cn1cnc2c(N)ncnc21)ON=C(C1CC1)C1CC1 (stereo partly drawn) [Example 10, isopropyl (((((R)-1-(6-amino-9H-purin-9-yl)propan-2-yl)oxy)methyl)(((dicyclopropylmethyl-ene)amino)oxy)phosphoryl)-L-alaninate]	95.0	46.8	228
C/C(=N\OP(=O)(CO[C@H](C)Cn1cnc2c(N)ncnc21)N[C@@H](C)C(=O)OC(C)C)C1CCCCC1 (stereo partly drawn) [Example 15, isopropyl (((R)-(((R)-1-(6-amino-9H-purin-9-yl)propan-2-yl)oxy)methyl)((((E)-1-cyclohexylethylidene)amino)oxy)phosphoryl)-L-alaninate; and isopropyl (((S)-(((R)-1-(6-amino-9H-purin-9-yl)propan-2-yl)oxy)methyl)((((E)-1-cyclohexylethylidene)amino)oxy)phosphoryl)-L-alaninate]	33.4		
CC(C)OC(=O)C(C)(C)NP(=O)(CO[C@H](C)Cn1cnc2c(N)ncnc21)ON=C1CCCC1 (mixture of isomers) [Example 27, isopropyl 2-(((R)-((((R)-1-(6-amino-9H-purin-9-yl)propan-2-yl)oxy)methyl)((cyclopentylideneamino)oxy)phosphoryl)amino)-2-methylpropanoate; and isopropyl 2-(((S)-((((R)-1-(6-amino-9H-purin-9-yl)propan-2-yl)oxy)methyl)((cyclopentylideneamino)oxy)phosphoryl)amino)-2-methylpropanoate]	99.3		
CC(C)=NOP(=O)(CO[C@H](C)Cn1cnc2c(N)ncnc21)NC(C)(C)C(=O)OC(C)C (stereo partly drawn) [Example 22, isopropyl 2-(((R)-((((R)-1-(6-amino-9H-purin-9-yl)propan-2-yl)oxy)methyl)((propan-2-ylideneamino)oxy)phosphoryl)amino)-2-methylpropanoate; and isopropyl 2-(((S)-((((R)-1-(6-amino-9H-purin-9-yl)propan-2-yl)oxy)methyl)((propan-2-ylideneamino)oxy)phosphonyl)amino)-2-methylpropanoate]	98.1		
CC(C)OC(=O)[C@H](C)NP(=O)(CO[C@H](C)Cn1cnc2c(N)ncnc21)ON=C1CCCC1 (stereo partly drawn) [Example 13, isopropyl (((R)-(((R)-1-(6-amino-9H-purin-9-yl)propan-2-yl)oxy)methyl)((cyclopentylidene-amino)oxy)phosphoryl)-L-alaninate; and isopropyl (((S)-(((R)-1-(6-amino-9H-purin-9-yl)propan-2-yl)oxy)methyl)((cyclopentylidene-amino)oxy)phosphoryl)-L-alaninate]	95.7		
CC(C)CC(CC(C)C)=NOP(=O)(CO[C@H](C)Cn1cnc2c(N)ncnc21)NC(C)(C)C(=O)OC1CCC1 (mixture of isomers) [Example 32, cyclobutyl 2-(((R)-((((R)-1-(6-amino-9H-purin-9-yl)propan-2-yl)oxy)methyl)(((2,6-dimethylheptan-4-ylidene)amino)oxy)phosphoryl)amino)-2-methylpropanoate; and cyclobutyl 2-(((S)-((((R)-1-(6-amino-9H-purin-9-yl)propan-2-yl)oxy)methyl)(((2,6-dimethylheptan-4-ylidene)amino)oxy)phosphoryl)amino)-2-methylpropanoate]	5.6		
C/C(=N\OP(=O)(CO[C@H](C)Cn1cnc2c(N)ncnc21)N[C@@H](C)C(=O)OC(C)C)C1CCCC1 (stereo partly drawn) [Example 21, isopropyl (((R)-(((R)-1-(6-amino-9H-purin-9-yl)propan-2-yl)oxy)methyl)((((E)-1-cyclopentylethylidene)amino)oxy)phosphoryl)-L-alaninate; and isopropyl (((S)-(((R)-1-(6-amino-9H-purin-9-yl)propan-2-yl)oxy)methyl)((((E)-1-cyclopentylethylidene)amino)oxy)phosphonyl)-L-alaninate]	79.5		
CC(C)CC(CC(C)C)=NOP(=O)(CO[C@H](C)Cn1cnc2c(N)ncnc21)N[C@@H](C)C(=O)OC(C)C (stereo partly drawn) [Example 12, isopropyl (((R)-(((R)-1-(6-amino-9H-purin-9-yl)propan-2-yl)oxy)methyl)(((2,6-dimethylheptan-4-ylidene)amino)oxy)phosphoryl)-L-alaninate; and isopropyl (((S)-(((R)-1-(6-amino-9H-purin-9-yl)propan-2-yl)oxy)methyl)(((2,6-dimethylheptan-4-ylidene)amino)oxy)phosphoryl)-L-alaninate]	17.6		
butyl 2-(((R)-((((R)-1-(6-amino-9H- purin-9-yl)propan-2- yl)oxy)methyl)((propan-2- ylideneamino)oxy)phosphoryl)amino)- 2-methylpropanoate; and butyl 2-(((S)-((((R)-1-(6-amino-9H- purin-9-yl)propan-2- yl)oxy)methyl)((propan-2- ylideneamino)oxy)phosphoryl)amino)- 2-methylpropanoate [Example 23]	99.0		
